Experimental data: patent publication US10420810B2, “Traditional Chinese medicine composition for the treatment of diabetic retinopathy” (priority 2015, dated 2019)

Tests used:
Format in all cases: in vivo, rat
[1] = system: iris vessels of diabetic rats; assay: Iris unit area blood perfusion volume (laser Doppler scanning) in STZ diabetic rats; conditions: x ± s
Text: (§1) The modeling was the same as that of Experiment 2. After successful modeling, diabetic rats were randomized into the model group (20 rats), experiment group (30 rats, given the TCM composition prepared according to Experiment 1), control group (Doxium group, 20 rats) and normal group (12 rats). The experiment lasted 300 days. 1.2 Observation Methods and Outcome Measures: The iris blood flow velocity, diameter of iris vessels, density of iris microvessels, endothelial structure of iris microvessels, permeability of iris microvessels and iris unit area blood perfusion volume were observed by the iris vascular perfusion scan and iris fluorescein angiography.

retina [2] = assay: HE staining of retinal paraffin sections, STZ diabetic rats (Experiment 3); conditions: 9 months, result in words
Procedure: (§2) 48 SPF-grade SD rats, male, 6 weeks old, (220±20) g in weight, were purchased from Huafukang Biotechnology Co., Ltd. After one-week's adaptive feeding, the rats were randomized into the modeling group (36 rats) and normal group (12 rats). The rats were fasted for 12 hours before modeling and given 1% STZ solution according to the body weight of 60 mg/kg via one intraperitoneal injection to induce experiment diabetic rat models. Rats in the normal group were injected with normal saline of the same volume. Blood glucose was monitored 72 hours later, blood was collected via caudal vein, and the modeling was deemed as successful when the blood glucose was ≥16.7 mmol/L for 3 consecutive days; after successful modeling, rats were randomized into the model group (12 rats), TCM composition experiment group (abbreviated as the experiment group, containing 12 rats) and Doxium group (abbreviated as the control group, containing 12 rats). Rats in the experiment group and control group were dosed on the next day after successful modeling. The administered dose of the experiment group was 10 ml/(kg·d) and that of the control group was 250 mg/(kg·d), with the Doxium powders dissolved in 2 mL distilled water. […] In the experiment period, all the rats were given food and drinking water at regular times each day; the changes in the body weight and blood glucose of rats were monitored monthly. […]

retina [3] = assay: Retinal electron microscopy, STZ diabetic rats (Experiment 3); conditions: 9 months, result in words
Procedure: as §2

retinal capillaries = assay: Microscopic observation of retinal vascular digest preparation, STZ diabetic rats (Experiment 3); conditions: 9 months, PAS staining, result in words
Procedure: as §2

[4] = system: iris vessels of diabetic rats; assay: Diameter of iris vessels in STZ diabetic rats; conditions: 300 days, result in words
Text: as §1

VEGF = assay: Immunohistochemistry of retinal paraffin sections: whole-layer retinal VEGF expression (Experiment 3); conditions: STZ diabetic rats, 9 months, x ± s
Procedure: as §2

[5] = system: iris vessels of diabetic rats; assay: Iris blood flow velocity in STZ diabetic rats; conditions: x ± s
Text: as §1

O=S(=O)(O)c1cc(O)ccc1O [Doxium]
Iris Unit Area Blood Perfusion Volume, Post-treatment ([1]; 300 days): 133.71 ± 6.89
Iris Unit Area Blood Perfusion Volume, Pre-treatment ([1]; baseline): 607.45 ± 194.19
Light microscopic observation of HE-stained retinal paraffin sections (retina [2]): the retinal net structure was loose, internal and external granular layers were arranged in a disordered manner, capillaries were dilated, and interstitial edema can be noted
Retinal ultrastructure observation (electron microscopy) (retina [3]): the vascular walls of retinal capillaries were still regular and smooth, basement membranes were thickened
Microscopic observation of retinal vascular digest preparation (retinal capillaries): retinal microvascular changes were significantly prevented or delayed
Diameter of iris vessels compared to the model group [4]: no statistically significant difference between the Doxium group and model group
Whole-layer Retinal VEGF Expression (Gray-scale values), Mean Optical Density Value (VEGF): 0.43 ± 0.09
Blood Flow Velocity Index, Post-treatment ([5]; 300 days): 3.25 ± 0.81 min
Blood Flow Velocity Index, Pre-treatment ([5]; baseline): 1.07 ± 0.07 min
